Where two headings read alike, the source gives them in different places.
Experiments:
[1] = system: KM12 cells; test: KM12 cell viability (CellTiter-Glo); assay type: cell-based; settings: Homo sapiens, 72 h, KM12 cell viability, CellTiter-Glo, read-out: IC50
Procedure, shortened: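 Three-day exposure of KM12 cells (5000/well, RPMI 1640 with 10% FBS, 37 °C, 5% CO2) to compound dilution series, 3-fold over 8 or 11 points (top 1000 nM in the 8-point format) or 2-fold over 12. CellTiter-Glo readout, with IC50 fitted by nonlinear least-squares regression.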

[2] = target: T1, TPM3-TRKA fusion protein (Homo sapiens, UniProt P04629); test: TPM3-TRKA fusion protein levels in KM12 cells (Western blot); assay type: cell-based; settings: read-out: Degradation (at 10 nM)
T1 construct: The resulted chimeric proteins always retain the kinase domain of TRK proteins; TPM3 (fusion partner, N-terminal part of tropomyosin alpha-3, P06753); endogenous in cells; host or cells: KM12 colon cancer cells; the other entry of the earlier key: TPM3 (P06753, Tropomyosin alpha-3 chain)
T1 sequence (P04629 with tags, fused parts or gaps): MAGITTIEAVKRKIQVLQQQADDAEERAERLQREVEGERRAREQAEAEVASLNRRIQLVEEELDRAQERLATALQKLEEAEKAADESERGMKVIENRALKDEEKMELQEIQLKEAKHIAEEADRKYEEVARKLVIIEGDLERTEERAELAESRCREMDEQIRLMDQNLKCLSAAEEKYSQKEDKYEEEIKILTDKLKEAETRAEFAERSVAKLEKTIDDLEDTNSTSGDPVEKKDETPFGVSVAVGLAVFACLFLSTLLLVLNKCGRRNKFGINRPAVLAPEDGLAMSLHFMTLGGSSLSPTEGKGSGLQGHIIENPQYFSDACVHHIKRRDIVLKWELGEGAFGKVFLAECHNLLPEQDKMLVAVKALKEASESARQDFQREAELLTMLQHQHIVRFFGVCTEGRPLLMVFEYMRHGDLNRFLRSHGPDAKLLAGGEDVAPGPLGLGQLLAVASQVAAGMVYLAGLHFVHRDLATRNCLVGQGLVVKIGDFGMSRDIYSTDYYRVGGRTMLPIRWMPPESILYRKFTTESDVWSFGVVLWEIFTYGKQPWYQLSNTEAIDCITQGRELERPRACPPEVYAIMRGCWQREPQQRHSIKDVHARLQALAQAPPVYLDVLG
Procedure, shortened: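 TPM3-TRKA levels were assessed by Western blot with chemiluminescent detection and band densitometry, after SDS-PAGE of BCA-normalized RIPA lysates. Before lysis, KM12 cells received DMSO, compounds or matched control compounds at concentrations including 0.1, 1, 10 and 100 nM and 0.4–30 nM. Exposures lasted 4 h, 8–16 h or 16 h.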

[3] = 11-point 3-fold serial dilution, 3 days
[4] = 16 h, TPM3-TRKA degradation in KM12 cells at 10 nM
[5] = 16 h, TPM3-TRKA degradation in KM12 cells at 10 nM compound, category of percentage degradation

| SMILES | IC50 [1, 3] [nM] | percent degradation of TPM3-TRKA protein at 0.01 µM [2, 4] [%] | IC50 ([1]; three days treatment) [nM] | percent degradation of TPM3-TRKA protein at 0.01 µM [2, 5] [%] | percent degradation of TPM3-TRKA protein at 0.01 µM ([2]; KM12, 16 h) [%] |
| --- | --- | --- | --- | --- | --- |
| COc1ccc(COc2ccc(Cn3c(N)nc4cc(-c5cnn(CC(=O)NCCCCCCCC(=O)N[C@H](C(=O)N6C[C@H](O)C[C@H]6C(=O)NCc6ccc(-c7scnc7C)cc6)C(C)(C)C)c5)cnc43)cc2OC)cc1 [CPD-510, (2S,4R)-1-((S)-2-(8-(2-(4-(2-amino-3-(3-methoxy-4-((4-methoxybenzyl)oxy)benzyl)-3H-imidazo[4,5-b]pyridin-6-yl)-1H-pyrazol-1-yl)acetamido)octanamido)-3,3-dimethylbutanoyl)-4-hydroxy-N-(4-(4-methylthiazol-5-yl)benzyl)pyrrolidine-2-carboxamide] | 58.8 | < 50 | – | – | – |
| O=C1CCC(N2C(=O)c3ccc(NC(=O)CN4CCN(c5cccc(-c6cnc7ccc(N8CCC[C@@H]8c8cccc(F)c8)nn67)n5)CC4)cc3C2=O)C(=O)N1 (stereo partly drawn) [TR-233, N-(2-(2,6-dioxopiperidin-3-yl)-1,3-dioxoisoindolin-5-yl)-2-(4-(6-(6-((R)-2-(3-fluorophenyl)pyrrolidin-1-yl)imidazo[1,2-b]pyridazin-3-yl)pyridin-2-yl)piperazin-1-yl)acetamide] | – | – | 5 | > 80 | – |
| Cn1c(=O)n(C2CCC(=O)NC2=O)c2cccc(C#CCN3CCN(c4ccc(C(=O)Nc5n[nH]c6ccc(Cc7cc(F)cc(F)c7)cc56)c(NC5CCOCC5)c4)CC3)c21 (centres unmarked) [TR-303, N-(5-(3,5˜Difluorobenzyl)-1H-indazol-3-yl)-4-(4-(3-(1-(2,6-dioxopiperidin-3-yl)-3-methyl-2-oxo-2,3˜dihydro-1/7-benzo[d]imidazol-4-yl)prop-2-yn-1-yl)piperazin-1-yl)-2-((tetrahydro-2/-pyran-4-yl)amino)benzamide] | – | – | 8.4 | > 80 | – |
| O=C1CCC(N2C(=O)c3ccc(N4CC(CN5CCN(c6ccc(C(=O)Nc7n[nH]c8ccc(Cc9cc(F)cc(F)c9)cc78)c(NCCF)c6)CC5)C4)cc3C2=O)C(=O)N1 (centres unmarked) [TR-267, N-(5-(3,5-difluorobenzyl)-1H-indazol-3-yl)-4-(4-((1-(2-(2,6-dioxopiperidin-3-yl)-1,3-dioxoisoindolin-5-yl)azetidin-3-yl)methyl)piperazin-1-yl)-2-((2-fluoroethyl)amino)benzamide] | – | – | 11.7 | > 80 | – |
| NC(=O)C1CCN(c2cc(CN3CCN(C(=O)CCCCNc4cccc5c4C(=O)N(C4CCC(=O)NC4=O)C5=O)CC3)ccc2NC(=O)c2coc(N3CCOCC3)n2)CC1 (centres unmarked) [CPD-481, N-(2-(4-carbamoylpiperidin-1-yl)-4-((4-(5-((2-(2,6-dioxopiperidin-3-yl)-1,3-dioxoisoindolin-4-yl)amino)pentanoyl)piperazin-1-yl)methyl)phenyl)-2-morpholinooxazole-4-carboxamide] | 17 | > 80 | – | – | – |
| O=C1CCC(N2C(=O)c3ccc(N4CCCC(N5CCN(c6ccc(C(=O)Nc7n[nH]c8ccc(Cc9cc(F)cc(F)c9)cc78)c(NC7CCOCC7)c6)CC5)C4)cc3C2=O)C(=O)N1 (centres unmarked) [TR-278, N-(5-(3,5-Difluorobenzyl)-1H-indazol-3-yl)-4-(4-(1-(2-(2,6-dioxopiperidin-3-yl)-1,3-dioxoisoindolin-5-yl)piperidin-3-yl)piperazin-1-yl)-2-((tetrahydro-2/-pyran-4-yl)amino)benzamide] | – | – | 34.7 | 50 to 80 | – |
| Cn1c(=O)n(C2CCC(=O)NC2=O)c2ccc(C#CCCN3CCN(c4ccc(C(=O)Nc5n[nH]c6ccc(Cc7cc(F)cc(F)c7)cc56)c(NC5CCOCC5)c4)CC3)cc21 (centres unmarked) [TR-319, N-(5-(3,5-difluorobenzyl)-1H-indazol-3-yl)-4-(4-(4-(1-(2,6-dioxopiperidin-3-yl)-3-methyl-2-oxo-2,3-dihydro-1H-benzo[d]imidazol-5-yl)but-3-yn-1-yl)piperazin-1-yl)-2-((tetrahydro-2H-pyran-4-yl)amino)benzamide] | – | – | 5.7 | > 80 | – |
| O=C1CCC(N2C(=O)c3ccc(NCC(=O)N4CCN(c5ccc(C(=O)Nc6n[nH]c7ccc(Cc8cc(F)cc(F)c8)cc67)cc5)CC4)cc3C2=O)C(=O)N1 (centres unmarked) [TR-264, N-(5-(3,5-difluorobenzyl)-1H-indazol-3-yl)-4-(4-((2˜ (2,6-dioxopiperidin-3-yl)-1,3-dioxoisoindolin-5-yl)glycyl)piperazin-1-yl)benzamide] | – | – | 9.9 | > 80 | – |
| O=C1CCC(N2C(=O)c3ccc(N4CCC5(CC(N6CCN(c7ccc(C(=O)Nc8n[nH]c9ccc(Cc%10cc(F)cc(F)c%10)cc89)c(NC8CCOCC8)c7)CC6)C5)C4)cc3C2=O)C(=O)N1 (centres unmarked) [TR-290, N-(5-(3,5-difluorobenzyl)-1H-indazol-3-yl)-4-(4-(6-(2-(2,6-dioxopiperidin-3-yl)-1,3-dioxoisoindolin-5-yl)-6-azaspiro[3.4]octan-2-yl)piperazin-1-yl)-2-((tetrahydro-2H-pyran-4-yl)amino)benzamide] | – | – | 11.2 | > 80 | – |
| O=C1CC[C@H](N2C(=O)c3ccc(N4CC(CN5CCN(c6ccc(C(=O)Nc7n[nH]c8ccc(Cc9cc(F)cc(F)c9)cc78)c(NC7CCOCC7)c6)CC5)C4)cc3C2=O)C(=O)N1 [TR-341, (S)—N-(5-(3,5-difluorobenzyl)-1H-indazol-3-yl)-4-(4-((1-(2-(2,6-dioxopiperidin-3-yl)-1,3-dioxoisoindolin-5-yl)azetidin-3-yl)methyl)piperazin-1-yl)-2-((tetrahydro-2H-pyran-4-yl)amino)benzamide] | – | – | 3 | > 80 | – |
| O=C1CCC(N2C(=O)c3ccc(C4CN(C5CCN(c6cccc(-c7cnc8ccc(N9CCC[C@@H]9c9cccc(F)c9)nn78)n6)CC5)C4)cc3C2=O)C(=O)N1 (stereo partly drawn) [TR-308, 2-(2,6-dioxopiperidin-3-yl)-5-(1-(1-(6-(6-((R)-2-(3-fluorophenyl)pyrrolidin-1-yl)imidazo[1,2-b]pyridazin-3-yl)pyridin-2-yl)piperidin-4-yl)azetidin-3-yl)isoindoline-1,3-dione] | – | – | 11.8 | – | > 80 |
| O=C1CCC(N2Cc3cc(C#CCN4CCN(c5ccc(C(=O)Nc6n[nH]c7ccc(Cc8cc(F)cc(F)c8)cc67)c(NCCF)c5)CC4)ccc3C2=O)C(=O)N1 (stereo not drawn) [TR-255, N—(S-(3,5-Difluorobenzyl)-1H-indazol-3-yl)-4-(4-(3-(2-(2,6-dioxopiperidin-3-yl)-1-oxoisoindolin-5-yl)prop-2-yn-1-yl)piperazin-1-yl)-2-((2-fluoroethyl)amino)benzamide] | – | – | 14.4 | > 80 | – |
| NC(=O)C1CCN(c2cc(CN3CCN(C(=O)CCCCCCCNc4cccc5c4C(=O)N(C4CCC(=O)NC4=O)C5=O)CC3)ccc2NC(=O)c2coc(N3CCOCC3)n2)CC1 (centres unmarked) [CPD-484, N-(2-(4-carbamoylpiperidin-1-yl)-4-((4-(8˜ ((2-(2,6-dioxopiperidin-3-yl)-1,3-dioxoisoindolin-4-yl)amino)octanoyl)piperazin-1-yl)methyl)phenyl)-2-morpholinooxazole-4-carboxamide] | 42 | > 80 | – | – | – |
| O=C1CCC(N2C(=O)c3ccc(NCCOCCOCCOCCOCCOCCC(=O)N4CCC(Nc5cccc(C(=O)Nc6cnn7ccc(N8CCC[C@@H]8c8cc(F)ccc8F)nc67)n5)CC4)cc3C2=O)C(=O)N1 (stereo partly drawn) [CPD-477, N-(5-((R)-2-(2,5-difluorophenyl)pyrrolidin-1-yl)pyrazolo[1,5-a]pyrimidin-3-yl)-6-((1-(1-((2-(2,6-dioxopiperidin-3-yl)-1,3-dioxoisoindolin-5-yl)amino)-3,6,9,12,15-pentaoxaoctadecan-18-oyl)piperidin-4-yl)amino)picolinamide] | 51.7 | 50 to 80 | – | – | – |
| Cn1c(=O)n(C2CCC(=O)NC2=O)c2cccc(C#CCCN3CCN(c4cccc(-c5cnc6ccc(N7CCC[C@@H]7c7cccc(F)c7)nn56)n4)CC3)c21 (stereo partly drawn) [TR-239, 3-(4-(4-(4-(6-(6-((R)-2-(3-Fluorophenyl)pyrrolidin-1-yl)imidazo[1,2-b]pyridazin-3-yl)pyridin-2-yl)piperazin-1-yl)but-1-yn-1-yl)-3-methyl-2-oxo-2,3-dihydro-1H-benzo[d]imidazol-1-yl)piperidine-2,6-dione] | – | – | 45.9 | > 80 | – |
| Cc1ncsc1-c1ccc(CNC(=O)[C@@H]2C[C@@H](O)CN2C(=O)[C@@H](NC(=O)CCC(=O)N2CCN(Cc3ccc(NC(=O)c4coc(N5CCOCC5)n4)c(N4CCC(C(N)=O)CC4)c3)CC2)C(C)(C)C)cc1 [CPD-490, N-(2-(4-carbamoylpiperidin-1-yl)-4-((4-(4-(((S)-1-((2S,4R)-4-hydroxy-2-((4-(4-methylthiazol-5-yl)benzyl)carbamoyl)pyrrolidin-1-yl)-3,3-dimethyl-1-oxobutan-2-yl)amino)-4-oxobutanoyl)piperazin-1-yl)methyl)phenyl)-2-morpholinooxazole-4-carboxamide] | 2800 | – | – | – | – |
| O=C1CCC(N2C(=O)c3ccc(N4CC5(CCC(N6CCN(c7ccc(C(=O)Nc8n[nH]c9ccc(Cc%10cc(F)cc(F)c%10)cc89)c(NC8CCOCC8)c7)CC6)C5)C4)cc3C2=O)C(=O)N1 (centres unmarked) [TR-291, N-(5-(3,5˜Difluorobenzyl)-1H-indazol-3-yl)-4-(4-(2-(2-(2,6-dioxopiperidin-3-yl)-1,3-dioxoisoindolin-5-yl)-2-azaspiro[3.4]octan-6-yl)piperazin-1-yl)-2-((tetrahydro-2H-pyran˜4-yl)amino)benzamide] | – | – | 446 | – | – |
